The values that follow come from ChEMBL document CHEMBL3217594, “Structureactivity relationships of methyl-lysine reader antagonists” (Medchemcomm, 2012).

Activity calls are given as the source filed them. The rule behind the calls is not given here.

The target in assay [1] is T1, Lethal(3)malignant brain tumor-like protein 4 (Homo sapiens) (UniProt Q8NA19).
T1 sequence (whole entry): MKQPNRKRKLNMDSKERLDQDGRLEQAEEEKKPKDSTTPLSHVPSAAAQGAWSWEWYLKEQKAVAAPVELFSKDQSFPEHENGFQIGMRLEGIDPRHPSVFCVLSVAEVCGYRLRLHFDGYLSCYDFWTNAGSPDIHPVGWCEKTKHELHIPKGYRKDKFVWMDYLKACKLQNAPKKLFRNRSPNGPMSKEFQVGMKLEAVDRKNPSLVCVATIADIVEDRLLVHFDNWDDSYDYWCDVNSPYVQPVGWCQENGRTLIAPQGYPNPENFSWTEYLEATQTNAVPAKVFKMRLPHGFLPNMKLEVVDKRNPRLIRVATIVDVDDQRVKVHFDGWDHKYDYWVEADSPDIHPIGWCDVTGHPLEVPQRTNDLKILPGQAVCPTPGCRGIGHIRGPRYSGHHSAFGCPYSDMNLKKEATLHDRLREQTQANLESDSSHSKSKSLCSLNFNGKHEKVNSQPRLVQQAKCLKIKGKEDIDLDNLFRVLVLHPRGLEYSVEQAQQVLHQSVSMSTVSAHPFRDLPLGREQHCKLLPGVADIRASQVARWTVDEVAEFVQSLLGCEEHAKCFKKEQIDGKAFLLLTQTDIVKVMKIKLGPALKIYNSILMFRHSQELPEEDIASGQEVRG
Description: Antagonist activity at L3MBTL4 (unknown origin) assessed as inhibition of L3MBTL4/biotinylated H2AK36Me1 peptide interaction at 30 uM after 30 mins by AlphaScreen assay.

The target of assay [2] is T2, Lethal(3)malignant brain tumor-like protein 4 (Homo sapiens, UniProt Q8NA19).
T2 sequence (Q8NA19 whole entry): T1 sequence (whole entry)
Description: Antagonist activity at L3MBTL4 (unknown origin) assessed as inhibition of L3MBTL4/biotinylated H2AK36Me1 peptide interaction after 30 mins by AlphaScreen assay.

For assay [3], the target named is T3, Scm-like with four MBT domains protein 1 (Homo sapiens) (UniProt Q9UHJ3).
T3 sequence (whole entry): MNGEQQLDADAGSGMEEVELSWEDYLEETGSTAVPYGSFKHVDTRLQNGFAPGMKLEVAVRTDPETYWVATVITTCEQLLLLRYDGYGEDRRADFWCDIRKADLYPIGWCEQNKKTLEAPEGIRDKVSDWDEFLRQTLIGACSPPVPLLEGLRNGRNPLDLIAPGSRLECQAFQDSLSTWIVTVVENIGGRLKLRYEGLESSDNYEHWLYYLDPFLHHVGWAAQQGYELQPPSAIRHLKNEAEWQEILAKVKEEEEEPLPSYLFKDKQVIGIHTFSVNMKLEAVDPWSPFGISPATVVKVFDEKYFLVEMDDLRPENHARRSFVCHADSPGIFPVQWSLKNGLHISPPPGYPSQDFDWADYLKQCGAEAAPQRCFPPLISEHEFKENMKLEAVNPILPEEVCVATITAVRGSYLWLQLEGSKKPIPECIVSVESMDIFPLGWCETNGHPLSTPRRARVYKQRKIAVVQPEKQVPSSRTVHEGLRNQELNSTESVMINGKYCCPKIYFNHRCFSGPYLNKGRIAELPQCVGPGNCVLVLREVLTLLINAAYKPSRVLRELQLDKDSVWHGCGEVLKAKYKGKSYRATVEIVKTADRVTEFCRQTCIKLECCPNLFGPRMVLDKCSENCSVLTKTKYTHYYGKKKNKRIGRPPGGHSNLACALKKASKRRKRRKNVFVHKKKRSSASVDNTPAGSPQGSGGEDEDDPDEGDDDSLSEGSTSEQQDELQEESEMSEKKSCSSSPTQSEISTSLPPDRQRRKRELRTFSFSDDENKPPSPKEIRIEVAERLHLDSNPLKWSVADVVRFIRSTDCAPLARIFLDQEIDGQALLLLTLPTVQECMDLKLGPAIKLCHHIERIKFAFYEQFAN
Nature of the assay: Antagonist activity at SFMBT1 (unknown origin) assessed as inhibition of SFMBT1/biotinylated H3K9Me1 peptide interaction at 30 uM after 30 mins by AlphaScreen assay.

The target of assay [4] is T4, Chromobox protein homolog 7 (Homo sapiens, UniProt O95931).
T4 sequence (O95931 whole entry): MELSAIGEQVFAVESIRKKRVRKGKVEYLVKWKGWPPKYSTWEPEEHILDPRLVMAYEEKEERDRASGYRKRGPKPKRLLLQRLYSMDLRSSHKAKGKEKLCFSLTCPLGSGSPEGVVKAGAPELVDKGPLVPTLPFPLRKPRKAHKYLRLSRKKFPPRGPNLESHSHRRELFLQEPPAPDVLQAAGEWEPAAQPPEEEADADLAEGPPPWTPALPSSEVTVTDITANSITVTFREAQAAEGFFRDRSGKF
Description: Antagonist activity at Flag-tagged CBX7 (unknown origin) assessed as inhibition of CBX7/biotinylated H3K9Me3 peptide interaction after 30 mins by AlphaScreen assay.

The target of assay [5] is T5, Chromobox protein homolog 7 (Homo sapiens) (UniProt O95931).
T5 sequence (whole entry): T4 sequence (O95931 whole entry)
Description: Antagonist activity at Flag-tagged CBX7 (unknown origin) assessed as inhibition of CBX7/biotinylated H3K9Me3 peptide interaction at 30 uM after 30 mins by AlphaScreen assay.

In assay [6] the target is T6, MBT domain-containing protein 1 (Homo sapiens, UniProt Q05BQ5). Description: Antagonist activity at MBTD1 (unknown origin) assessed as inhibition of MBTD1/biotinylated H4K20Me1 peptide interaction after 30 mins by AlphaScreen assay.
Assay [7] deals with T7, Scm-like with four MBT domains protein 1 (Homo sapiens, UniProt Q9UHJ3).
T7 sequence (Q9UHJ3 whole entry): T3 sequence (whole entry)
Nature of the assay: Antagonist activity at SFMBT1 (unknown origin) assessed as inhibition of SFMBT1/biotinylated H3K9Me1 peptide interaction after 30 mins by AlphaScreen assay.

The target of assay [8] is T6, MBT domain-containing protein 1. Nature of the assay: Antagonist activity at MBTD1 (unknown origin) assessed as inhibition of MBTD1/biotinylated H4K20Me1 peptide interaction at 30 uM after 30 mins by AlphaScreen assay.
Assay [9] deals with T8, Lethal(3)malignant brain tumor-like protein 3 (Homo sapiens, UniProt Q96JM7).
T8 sequence (Q96JM7 whole entry): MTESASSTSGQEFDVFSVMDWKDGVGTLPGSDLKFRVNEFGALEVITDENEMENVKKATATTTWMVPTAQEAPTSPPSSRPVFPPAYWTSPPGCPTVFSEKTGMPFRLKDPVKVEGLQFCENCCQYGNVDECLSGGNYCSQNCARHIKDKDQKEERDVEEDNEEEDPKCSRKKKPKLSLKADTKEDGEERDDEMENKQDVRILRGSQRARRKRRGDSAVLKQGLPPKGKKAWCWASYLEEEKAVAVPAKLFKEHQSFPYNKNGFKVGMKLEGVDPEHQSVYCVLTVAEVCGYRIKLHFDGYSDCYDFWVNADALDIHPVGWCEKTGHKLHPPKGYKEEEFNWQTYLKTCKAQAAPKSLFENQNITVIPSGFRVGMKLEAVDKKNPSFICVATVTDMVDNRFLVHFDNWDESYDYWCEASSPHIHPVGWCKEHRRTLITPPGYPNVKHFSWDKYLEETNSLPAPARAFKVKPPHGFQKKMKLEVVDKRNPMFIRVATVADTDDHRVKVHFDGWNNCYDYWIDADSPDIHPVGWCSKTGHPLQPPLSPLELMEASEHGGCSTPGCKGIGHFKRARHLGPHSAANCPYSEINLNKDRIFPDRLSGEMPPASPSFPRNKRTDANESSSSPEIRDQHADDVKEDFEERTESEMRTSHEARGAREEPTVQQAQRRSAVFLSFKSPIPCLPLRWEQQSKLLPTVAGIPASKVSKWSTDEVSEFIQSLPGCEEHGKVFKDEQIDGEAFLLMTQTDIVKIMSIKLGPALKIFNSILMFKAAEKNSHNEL
Nature of the assay: Antagonist activity at His-tagged L3MBTL3 (unknown origin) assessed as inhibition of L3MBTL3/biotinylated H4K20Me2 peptide interaction after 30 mins by AlphaScreen assay.

T6 sequence (Q05BQ5 whole entry, the tested form may be a part): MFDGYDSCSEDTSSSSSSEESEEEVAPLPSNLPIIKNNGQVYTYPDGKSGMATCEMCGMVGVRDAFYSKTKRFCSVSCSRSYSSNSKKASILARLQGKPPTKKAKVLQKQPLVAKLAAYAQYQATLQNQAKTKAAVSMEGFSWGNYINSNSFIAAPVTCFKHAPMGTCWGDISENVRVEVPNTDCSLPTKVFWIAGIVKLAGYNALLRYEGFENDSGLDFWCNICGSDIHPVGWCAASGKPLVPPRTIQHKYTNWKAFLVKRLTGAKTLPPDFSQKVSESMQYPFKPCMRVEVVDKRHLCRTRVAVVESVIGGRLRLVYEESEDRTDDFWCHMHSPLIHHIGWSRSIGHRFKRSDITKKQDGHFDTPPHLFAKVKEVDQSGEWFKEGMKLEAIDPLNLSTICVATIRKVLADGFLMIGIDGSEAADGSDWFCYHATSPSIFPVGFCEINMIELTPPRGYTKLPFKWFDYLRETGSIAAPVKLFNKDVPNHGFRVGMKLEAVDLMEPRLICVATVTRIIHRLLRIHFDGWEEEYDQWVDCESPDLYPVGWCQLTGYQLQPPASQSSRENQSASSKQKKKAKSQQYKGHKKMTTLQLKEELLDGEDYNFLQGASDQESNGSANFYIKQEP

`O=C(c1cccc(Br)c1)N1CCC(N2CC=CC2)CC1`: the values for the inhibition in [1], in assay [5] and in assay [8] were 28%, 18% and 24%, respectively. The IC50 in assay [2] is > 30 µM; in assay [4] it was > 30 µM; in assay [6], > 30 µM; in [7], > 30 µM; in [9], 8.7 µM. In addition, the inhibition result in [3] is “inactive”.
As to `CNC(=O)c1cccc(C(=O)N2CCC(N3CCCC3)CC2)c1`, the inhibition was 32% in assay [1] and 21% in [8]. Moreover, the IC50 was > 30 µM in assay [2]; > 30 µM in [4]; > 30 µM in assay [6]; > 30 µM in [7]; 6.4 µM in assay [9]. Also, the inhibition result in [3] and in assay [5] was “inactive” in each case.
For `O=C(c1ccc(Br)cc1)N1CCC(N2CCCC2)CC1`, the inhibition amounted to 30% in assay [1] and 24% in assay [8]. In addition, the IC50 in assay [2] was > 30 µM; in assay [4], > 30 µM; in assay [6] it was > 30 µM; in [7] it was > 30 µM; in assay [9], 4.1 µM. For the same compound, the inhibition result in [3] and in assay [5] was “inactive” in each case.
`O=C(c1ccccc1)N1CCC(N2CCCC2)CC1`: the inhibition in [1] worked out at 40%; in assay [8], 22%. The IC50 in [2] is > 30 µM; in [4], > 30 µM; in [6], > 30 µM; in [7], > 30 µM; in assay [9] it was 6.2 µM. The inhibition entry in [3] and in [5] was “inactive” each time.
Turning to `O=C(c1cncc(Br)c1)N1CCC(N2CCCC2)CC1`, the figures for the inhibition in assay [1], in assay [5] and in assay [8] were 41%, 9% and 23%, respectively. Also, the half-maximal inhibitory concentration (IC50) in assay [2] is > 30 µM; in assay [4] it was > 30 µM; in assay [6], > 30 µM; in assay [7], > 30 µM; in assay [9], 4.8 µM. Moreover, the inhibition result in assay [3] was “inactive”.
Regarding `c1ccc(C(c2ccccc2)N2CCC(N3CCCC3)CC2)cc1`, the values for the inhibition in [1] and in assay [8] were 17% and 36%, respectively. Also, the half-inhibitory concentration (IC50) in assay [2] was > 30 µM; in [4] it was > 30 µM; in [6] it was > 30 µM; in assay [7], > 30 µM; in [9], 2.4 µM. Also, the inhibition result in [3] and in assay [5] was “inactive” throughout.
Turning to `O=C(c1cccc(Br)c1)N1CC2CCC(C1)C2N1CCCC1` (stereo not given), the inhibition turned out to be 16% in assay [1] and 31% in assay [8]. Further, the half-inhibitory concentration (IC50) is > 30 µM in [2]; > 30 µM in assay [4]; > 30 µM in [6]; > 30 µM in [7]; 3.6 µM in assay [9]. The inhibition entry in [3] and in assay [5] was “inactive” in each case.
`O=C(c1ccccc1Br)N1CCC(N2CCCC2)CC1`: the figures for the inhibition in assay [1], in assay [5] and in assay [8] were 29%, 17% and 31%, respectively. For the same compound, the half-inhibitory concentration (IC50) was > 30 µM in [2]; > 30 µM in assay [4]; > 30 µM in assay [6]; > 30 µM in assay [7]; 6.8 µM in [9]. The inhibition result in assay [3] was “inactive”.
In the case of `O=C(c1cccc(Br)c1)N1CCCC(N2CCCC2)CC1` (stereo not given), the values for the inhibition in assay [1] and in assay [5] were 28% and 13%, respectively. For the same compound, the concentration for half-maximal inhibition (IC50) was > 30 µM in assay [2]; > 30 µM in assay [4]; 15.2 µM in [6]; > 30 µM in assay [7]; 6.7 µM in [9]. The inhibition entry in assay [3] is “inactive”.
